According to US20090232735A1, “USE OF FRUCTOSE-BASED THERAPIES FOR THE TREATMENT OF CANCER” (CEDARS-SINAI MEDICAL CENTER, priority 2005, published 2009):

Tests used:
Format in all cases: cell-based, human
[1] = system: ER negative MDA-MB231 breast cancer cells; experiment: Breast cancer cell proliferation (MTT assay), MDA-MB231
Description: Estrogen receptor (ER) positive MCF-7, and ER negative MDA-MB231 cells were plated in 5 mM fructose or glucose for times between 8-72 h, and proliferative rates measured using MTT assay. *, p<0.05; **, p<0.01.
FIG. 5 depicts fructose-mediated increased breast cancer proliferation in accordance with an embodiment of the present invention. ER positive MCF-7, and ER negative MDA-MB231 cells were plated in a range of fructose or glucose concentrations (5-25 mM) for 72 h, after which proliferative rates were measured using an MTT assay. *, p<0.05 for concentrations between 5-25 mM fructose versus glucose.
Standard media for breast cancer cell culture contain either 5-7 mM (low) and 12-25 mM (high) glucose concentrations. Estrogen receptor (ER) positive MCF-7, and ER negative MDA-MB231 cells were cultured overnight in 2 mM glucose standard DMEM medium containing 10% fetal bovine serum prior to incubation for periods between 8, and 72 hours in standard DMEM medium containing 10% fetal bovine serum, and 5 mM glucose or 5 mM fructose.
Proliferative rates were then measured in replicate (minimum of 6) aliquot wells of the breast cancer cells grown in glucose, or fructose containing medium. […] In separate experiments, proliferative rates of the MCF-7, and MDA-MB231 breast cancer cells were compared following culture in a range of fructose, and glucose concentrations (2-25 mM) for 72 hours.

[2] = system: fructokinase-1 (FK-1) mRNA; experiment: Fructokinase-1 mRNA by Northern blot in MCF-7 cells; conditions: MCF-7, 5.5 mM fructose, 24 h
Description: FIG. 9 depicts Northern blot analysis of fructokinase-1 mRNA levels in MCF-7 breast cancer cells in accordance with an embodiment of the present invention. 20 μg total RNA was used to measure FK-1 mRNA levels in the MCF-7 cells following growth in 2 mM glucose, 5.5 mM glucose, or 5.5 mM fructose for 24 h. FK-1 was also detected in human liver, with lower levels in muscle tissue.
In additional studies, the inventors used Northern blot to confirm significant FK-1 mRNA expression in the breast cancer cells. As depicted in FIG. 9, fructokinase-1 mRNA expression was detected in MCF-7 cells cultured in 2, and 5.5 mM glucose, and 5.5 mM fructose, and in human muscle and liver tissue.

[3] = system: MAPK pathway (pERK, pRSK, pMEK); experiment: Western blot of MAPK pathway in PANC-1 cells; conditions: PANC-1, 5.5 mM sugar, 48 h
Description: FIG. 23 depicts Western blot analysis examining MAPK pathway expression in accordance with an embodiment of the present invention. PANC-1 pancreatic cancer cells were incubated in 2 mM glucose, 5.5 mM glucose or 5.5 mM fructose for 48 hours, after which Western blot analysis on total protein lysates was employed to examine phosphorylated MEK (pMEK), pRSK, and pCREB, and corresponding total MEK, RSK, and CREB levels.
Several signal transduction pathways may be involved in fructose-mediated pancreatic cancer growth but given the importance of the MAPK pathway in proliferation, the inventors believed that MAPK was involved. In the MAPK pathway, MEK mediated phosphorylation of the p44/42 MAP kinase (ERK) is the first step in this cascade, which results in phosphorylation of p90^Rsk, leading to transcriptional activation of CREB, and AP1, activating gene transcription and promoting cellular growth. The inventors employed Western blot analysis to examine MAPK pathway expression in pancreatic cancer cells incubated in 2 mM glucose, 5.5 mM glucose, and 5.5 mM fructose for 48 hours. Levels of the active phosphorylated proteins, pERK, pRSK, and pMEK were normalized to total ERK, RSK, and MEK levels respectively, and compared between the fructose-, and glucose-treated PANC-1 cells.

[4] = system: MAPK pathway (pMEK, pRsk, pCREB) in MCF-7, and MDA-MB231 breast cancer cells; experiment: Western blot of MAPK pathway in breast cancer cells
Description: FIG. 11 depicts increased breast cancer phosphorylated-MEK, phosphorylated Rsk, and phosphorylated CREB in accordance with an embodiment of the present invention. MCF-7 breast cancer cells were incubated in 2 mM glucose, 5 mM glucose or 5 mM fructose for 24 hours, after which Western blot analysis on total protein lysates was employed to examine components of the MAP kinase pathway. […] Total MEK, Rsk, and CREB levels, and β-actin served as loading controls.
Although several signal transduction pathways are likely involved in the fructose-mediated enhanced breast cancer growth and while not wishing to be bound by any particular theory, the inventors believe that the MAP-kinase pathway is involved. The inventors have used Western blot analysis to examine the MAPK pathway in breast cancer cells incubated in 2 mM glucose, 5.5 mM glucose, and 5.5 mM fructose for 48 hours. […] Activation of MEK, and subsequently ERK results in phosphorylation of p90^Rsk, which leads to transcriptional activation of CREB and AP1, which bind to cAMP or AP1 response elements respectively, activating gene transcription and promoting cellular growth.

[5] = system: PANC-1 pancreatic cancer cells; experiment: BRDU uptake in PANC-1 cells; conditions: PANC-1, 5.5 mM fructose, 72 h
Description: FIG. 16 depicts BRDU uptake following treatment with glucose or fructose in accordance with an embodiment of the present invention. PANC-1 cells were pre-incubated in 2 mM glucose prior to treatment with 5.5 mM glucose or fructose for 72 h. BRDU (0.01 mg/ml) was added to the medium at 48 h, and BRDU-uptake quantified at 72 h.
As a further measure of PANC-1 proliferative rates, the inventors compared bromodeoxyuridine (BRDU) uptake following PANC-1 cell treatment as before with 2 mM, and 5.5 mM glucose, or 5.5 mM fructose for 72 h. In the final 12 h, 10 μM BRDU was added to the glucose-, and fructose-treated cells, after which BRDU-positive cells were counted. […] A further question the inventors sought to address was would the fructose-induced pancreatic cancer proliferative rates be maintained if the PANC-1 cells were also exposed to, and able to utilize their customary culture glucose concentrations. Therefore, the inventors cultured PANC-1 cells for 72 h in a range of glucose concentrations (0-15 mM) admixed with a range of fructose concentrations (0-15 mM).

SMILES: O=C(CO)[C@@H](O)[C@H](O)[C@H](O)CO [fructose]
- proliferative rates in fructose compared to glucose ([1]; MDA-MB231, 5 mM fructose vs 5 mM glucose, 8-72 h): higher proliferative rates
- proliferative rates in 5 mM fructose compared to 25 mM glucose ([1]; MDA-MB231, 72 hours, 5 mM fructose vs 5-fold higher glucose (25 mM)): higher proliferative rates
- FK-1 mRNA expression (Northern blot) [2]: Highest FK-1 expression
- pERK, pRSK, and pMEK expression [3]: highest pERK, pRSK, and pMEK expression
- phospho-MEK expression ([4]; 5.5 mM fructose vs 5.5 and 2 mM glucose, MCF-7 and MDA-MB231): increased expression of phospho-MEK (pMEK)
- phospho-Rsk and phospho-CREB ([4]; 5.5 mM fructose, 24 h, vs 5.5 and 2 mM glucose): increased phospho-Rsk (pRsk), and phospho-CREB (pCREB)
- BRDU-uptake higher than with 5.5 mM glucose [5]: ~75%
